{"source": "patent US20110111016A1", "about": "“NON-DNA BASE-CONTAINING POLYNUCLEOTIDE COMPOSITIONS AND THEIR USE FOR THE MODULATION OF IMMUNE RESPONSES” (priority 2009, published 2011)", "key": {"human TLR9": {"biological_target": "T1, human TLR9 (Homo sapiens, UniProt Q9NR96)", "T1 construct": "host or cells: HEK293", "T1 sequence (Q9NR96 26-1032)": "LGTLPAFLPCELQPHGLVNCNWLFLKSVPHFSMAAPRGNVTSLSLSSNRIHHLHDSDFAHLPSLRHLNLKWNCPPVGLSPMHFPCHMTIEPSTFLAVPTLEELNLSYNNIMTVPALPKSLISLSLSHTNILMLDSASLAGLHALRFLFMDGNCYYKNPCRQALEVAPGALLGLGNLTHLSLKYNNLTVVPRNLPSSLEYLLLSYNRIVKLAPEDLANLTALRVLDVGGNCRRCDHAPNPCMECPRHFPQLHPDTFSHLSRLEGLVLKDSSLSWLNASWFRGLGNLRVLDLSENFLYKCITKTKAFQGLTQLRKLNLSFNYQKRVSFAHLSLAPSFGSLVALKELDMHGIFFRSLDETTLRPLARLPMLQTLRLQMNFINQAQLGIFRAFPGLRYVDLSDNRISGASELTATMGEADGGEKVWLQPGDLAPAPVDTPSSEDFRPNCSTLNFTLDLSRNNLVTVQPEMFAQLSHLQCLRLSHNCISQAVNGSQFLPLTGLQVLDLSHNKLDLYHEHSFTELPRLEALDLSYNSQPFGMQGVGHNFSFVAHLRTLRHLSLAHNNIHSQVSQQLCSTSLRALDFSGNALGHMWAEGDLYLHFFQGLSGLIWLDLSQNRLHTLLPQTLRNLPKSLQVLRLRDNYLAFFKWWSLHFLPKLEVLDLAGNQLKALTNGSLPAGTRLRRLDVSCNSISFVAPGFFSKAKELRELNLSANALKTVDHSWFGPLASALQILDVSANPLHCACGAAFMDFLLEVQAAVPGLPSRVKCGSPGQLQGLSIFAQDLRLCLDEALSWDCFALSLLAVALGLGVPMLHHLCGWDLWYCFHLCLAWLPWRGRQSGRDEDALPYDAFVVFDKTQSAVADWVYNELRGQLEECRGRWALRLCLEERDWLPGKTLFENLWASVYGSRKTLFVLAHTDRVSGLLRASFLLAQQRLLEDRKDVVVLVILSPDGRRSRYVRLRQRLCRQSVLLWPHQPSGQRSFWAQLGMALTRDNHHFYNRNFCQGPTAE", "test": "NF-κB activation (secreted alkaline phosphatase reporter) in HEK293 cells expressing human TLR9", "assay_type": "cell-based", "settings": "HEK293/hTLR9 cell line; polynucleotide final concentration 10 μg/mL; 16-20 hours", "experimental": "Toll-like receptors (TLR) are known to interact with a number of natural and synthetic molecules that can function as immune adjuvants. Examples of these molecules are Poly (I:C) polynucleotides, lipopolysaccharide and CpG-containing polynucleotides. The interaction of non-DNA base-containing polynucleotides (SEQ ID NOs: 1-3) to interact with TLR and induce down-stream signaling was tested by assessing NF-κB activation in HEK293 cells expressing human TLR2, 3, 4, 5, 7, 8 and 9. TLR engagement was determined by measurement of secreted alkaline phosphatase, under the control of a reporter inducible by NF-κB. Appropriate positive controls were used for each TLR. […] HEK293 cells containing the appropriate TLR and NF-κB reporting system (InvivoGen, San Diego, Calif., USA) were placed in wells of 96 well plates (25,000-50,000 cells, in a final volume of 200 μL medium designed for the detection of NF-κB induced secreted alkaline phosphatase expression), and incubated with non-DNA base-containing polynucleotides or positive controls for 16-20 hours. TLR activating activity was determined by measurement of absorbance at 650 nm wavelength using a Coulter AD340C absorbance detector. The results shown are expressed as Optical Density (OD)."}, "human PBMC": {"system": "human PBMC", "test": "Induction of cytokines from human PBMC (ELISA cytokine capture assay)", "assay_type": "cell-based", "settings": "PBMC of 3 healthy adults, 48 h; increase two-fold that of background control; SEQ ID NOs 1-3 100 μg/mL, CpG 2006 and MCC 1-100 μg/mL, LPS 10 μg/mL", "excerpt": "A number of immune adjuvants are known to be capable of eliciting cytokines from human PBMC cells. Examples of such adjuvants are alum, lipopolysaccharide, monophosphoryl lipid A, CpG-containing polynucleotides and non-CpG-containing ODN's, as well as mycobacterial cell wall-DNA complex (MCC). […] PBMC were isolated from whole blood using standard Ficoll-Paque (GE Healthcare Life Sciences, Baie d'Urfé, QC, Canada) gradient centrifugation, and placed in tissue culture plates at a concentration of 10^6 cells/mL (total volume: 1 mL in RPMI 1640 medium containing 10% heat-inactivated FBS, both from Wisent, St-Bruno, QC, Canada) and 50 μg/mL gentamycin sulfate (Sigma-Aldrich Canada, Oakville, ON, Canada). SEQ ID NOs: 1, 2 or 3 were added to give a final concentration of 100 μg/mL, and the cells were cultivated for 48 h. Cytokines (IL-1β, IL-2, IL-6, IL-10 and IL-12p40) in the supernatant at the end of incubation were determined by ELISA using a cytokine capture assay process (Biosource, Camarillo, Calif.). SEQ ID NO: 32 CpG 2006 ODN (1-100 μg/mL, 5′-[…]-3′, […]), MCC (1-100 μg/mL) and LPS (10 μg/mL) were used as positive controls."}}}
{"substance": "IIGTII [SEQ ID NO: 3]", "values": [{"measurement": "TLR activation, Optical Density at 650 nm, hTLR9", "setting": "human TLR9", "value": 0.083}, {"measurement": "Number of individuals responding, IL-1β", "setting": "human PBMC", "value": "0/3"}, {"measurement": "Number of individuals responding, IL-2", "setting": "human PBMC", "value": "0/3"}, {"measurement": "Number of individuals responding, IL-6", "setting": "human PBMC", "value": "3/3"}, {"measurement": "Number of individuals responding, IL-10", "setting": "human PBMC", "value": "0/3"}, {"measurement": "Number of individuals responding, IL-12p40", "setting": "human PBMC", "value": "0/3"}]}
{"substance": "NebGGTGNeb (DNA NGGTGN; Nebularine at both ends, sugar and linkages not given here, further chemistry not given here) [SEQ ID NO: 1, 5′-OH, 3′-OH non-DNA base-containing polynucleotide]", "values": [{"measurement": "TLR activation, Optical Density at 650 nm, hTLR9", "setting": "human TLR9", "value": 0.074}, {"measurement": "Number of individuals responding, IL-1β", "setting": "human PBMC", "value": "3/3"}, {"measurement": "Number of individuals responding, IL-2", "setting": "human PBMC", "value": "0/3"}, {"measurement": "Number of individuals responding, IL-6", "setting": "human PBMC", "value": "3/3"}, {"measurement": "Number of individuals responding, IL-10", "setting": "human PBMC", "value": "0/3"}, {"measurement": "Number of individuals responding, IL-12p40", "setting": "human PBMC", "value": "3/3"}]}
{"substance": "UUGTUU [SEQ ID NO: 2]", "values": [{"measurement": "TLR activation, Optical Density at 650 nm, hTLR9", "setting": "human TLR9", "value": 0.090}, {"measurement": "Number of individuals responding, IL-1β", "setting": "human PBMC", "value": "0/3"}, {"measurement": "Number of individuals responding, IL-2", "setting": "human PBMC", "value": "0/3"}, {"measurement": "Number of individuals responding, IL-6", "setting": "human PBMC", "value": "1/3"}, {"measurement": "Number of individuals responding, IL-10", "setting": "human PBMC", "value": "0/3"}, {"measurement": "Number of individuals responding, IL-12p40", "setting": "human PBMC", "value": "3/3"}]}
